Values joined by “and” are separate entries in the source; they are usually repeats but may differ in a detail not shown here. Equal values may be shown once.
Experiments:
[1] = target: T1, Or83b (Drosophila melanogaster, UniProt Q9VNB5); assay: Calcium imaging (fura-2) in HEK293 cells expressing Or83b; assay type: cell-based; design: expressed in transfected cells; host or cells: HEK293; settings: cell expressing Or83b (Fig. 6e)
T1 sequence (Q9VNB5 1-486): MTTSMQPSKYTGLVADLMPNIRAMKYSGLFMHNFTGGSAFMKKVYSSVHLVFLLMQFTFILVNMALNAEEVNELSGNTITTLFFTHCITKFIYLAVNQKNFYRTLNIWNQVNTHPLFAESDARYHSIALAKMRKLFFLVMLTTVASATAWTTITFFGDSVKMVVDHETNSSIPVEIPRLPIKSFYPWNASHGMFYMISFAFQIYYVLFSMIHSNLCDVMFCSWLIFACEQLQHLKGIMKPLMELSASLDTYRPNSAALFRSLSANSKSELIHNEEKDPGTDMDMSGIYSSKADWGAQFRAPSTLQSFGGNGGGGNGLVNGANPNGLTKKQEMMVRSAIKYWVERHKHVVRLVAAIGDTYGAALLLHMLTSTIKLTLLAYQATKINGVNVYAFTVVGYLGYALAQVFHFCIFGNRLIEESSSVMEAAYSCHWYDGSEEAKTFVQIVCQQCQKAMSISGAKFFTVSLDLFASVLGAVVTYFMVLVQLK
Method: Free intracellular Ca^2+ concentration ([Ca^2+]i) was determined by fura-2 fluorescence as described (Messutat et al., Cell Calcium 30, 199-211. (2001)). In brief, cells were loaded with fura-2 by incubation in bath solution containing 2 µM fura-2/acetomethylester for 20 min. Free intracellular Ca^2+ concentration ([Ca^2+]i) was determined with the fluorescence ratio method. Excitation of fura-2 at 340 and 380 nm was performed with a monochromator (Polychrome II, T.I.L.L. Photonics, Gräfelfing, Germany) coupled via an epifluorescence condenser into an Axioskop FS microscope (Carl Zeiss, Jena, Germany) with a water immersion objective (LUMPFL 40xW/IR/0.8; Olympus, Hamburg, Germany). […] [Ca^2+]i was calculated according to the equation [Ca^(2 +)]i = Keff (R-Rmin)/(Rmax-R). […] Keff, Rmin, and Rmax were determined using HEK293 cells permeabilized with 2 µM ionomycin and three solutions with different concentrations of free Ca^2+ (Ca^2+ free; 5 mM Ca^2+; 500 nM Ca^2+; the composition of the 500 nM solution was calculated with WEBMAXC v.2.20) (Patton et al., Cell Calcium 35, 427-31 (2004)). […]
Fluorescence images were acquired using a cooled CCD camera controlled by TILLVision 4.0 software (T.I.L.L. Photonics). […] Image pairs were obtained by excitation for 100 ms at 340 nm and 380 nm; background fluorescence was subtracted.

[2] = target: T1, Or83b; assay: Whole-cell patch-clamp of HEK293 cells expressing Or83b alone; assay type: cell-based; design: expressed in transfected cells; host or cells: HEK293
Method: (§1) In some experiments we transfected cells with pcDNA3-DOR22a-GFP or pcDNA3-DOR83b-GFP alone. We also examined the properties of DOR47a, which was cloned, using standard molecular biology methods into a pcDNA3.1(-) expression vector. To test for putative G-protein coupling, cells were transfected with the respective OR-DNA together with 1.5 µg hHCN2/pcDNA3 (provided by M. Biel, Munich, Germany), with 1 µg hKCNQ4/pcDNA3.1 or with 1 µg hCNGA2/pCMV6-XL4 (Origene, Rockville, MD, USA).
(§2) In brief, ion currents in HEK293 cells were measured at room temperature using whole-cell patch-clamp with appropriate compensation of series resistance and of capacitive currents. Additional experiments were performed in the outside-out configuration. Current measurements and data acquisition were performed using an EPC9 patch-clamp amplifier controlled by PatchMaster software (both HEKA Elektronik, Lambrecht, Germany). Patch-clamp pipettes were fabricated from borosilicate capillaries. Pipettes for whole-cell recordings had resistances of 2-4 MΩ for excised-patch recordings the pipette resistance was up to 15 MΩ.
(§3) To differentiate between ionotropic and metabotropic pathways of receptor activation (Fig. 2a-d) the pipette solution contained either 2 mM ATP plus 2 mM GTP or 2 mM ADP plus 2 mM GDP (both for whole-cell and outside-out configuration). For the preparation of Cl^--free solutions the chloride salts were substituted by gluconate salts. The pipette Cs^+ solution contained (in mM) 140 CsCl, 1 Mg-ATP, 10 EGTA, 10 HEPES (pH = 7.3), and the Cs^+ bath solution contained (in mM) 140 CsCl, 15 glucose, 15 HEPES (pH = 7.4). The Ca^2+-free bath solution contained (in mM) 140 NaCl, 15 glucose, 15 HEPES, and the Na^+-free bath solution contained (in mM) 140 NMDG-Cl, 10 CaCl2, 10 glucose, 15 HEPES.
(§4) With the exception of GDP-γ-S, which was applied via the patch pipette, all substances were applied to the bath using either a bath perfusion system (BPS4 from ALA, New York, USA) or a rapid solution changer (RSC160 from Biologic, Claix, France) which were controlled by the PatchMaster software (HEKA Elektronik).

[3] = target: T2, Or47a and Or83b (Drosophila melanogaster, UniProt P81921+Q9VNB5); assay: Whole-cell patch-clamp of HEK293 cells expressing Or47a and Or83b; assay type: cell-based; settings: 100 µM; -100 mV (Fig. 7)
T2 construct: expressed in transfected cells; host or cells: HEK293
T2 sequence (P81921 1-385): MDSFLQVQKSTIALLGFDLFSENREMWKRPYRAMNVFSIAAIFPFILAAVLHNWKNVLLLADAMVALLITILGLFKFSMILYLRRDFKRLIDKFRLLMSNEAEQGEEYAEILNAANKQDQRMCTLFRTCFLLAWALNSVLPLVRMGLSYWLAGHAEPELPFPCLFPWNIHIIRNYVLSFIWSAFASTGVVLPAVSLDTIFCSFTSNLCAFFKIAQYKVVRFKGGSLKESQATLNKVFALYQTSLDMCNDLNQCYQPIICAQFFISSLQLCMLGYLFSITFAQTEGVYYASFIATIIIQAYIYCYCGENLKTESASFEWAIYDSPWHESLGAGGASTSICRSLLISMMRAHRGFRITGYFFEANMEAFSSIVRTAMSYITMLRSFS
T2 sequence (Q9VNB5 1-486): T1 sequence (Q9VNB5 1-486)
Method: as §1, §2

[4] = target: T3, Or22a and Or83b (Drosophila melanogaster, UniProt P81909+Q9VNB5); assay: Whole-cell patch-clamp of currents in HEK293 cells coexpressing Or22a and Or83b; assay type: cell-based; settings: absence of Etb; 10 µM benzaldehyde; n = 6
T3 construct: expressed in transfected cells; host or cells: HEK293
T3 sequence (P81909 1-397): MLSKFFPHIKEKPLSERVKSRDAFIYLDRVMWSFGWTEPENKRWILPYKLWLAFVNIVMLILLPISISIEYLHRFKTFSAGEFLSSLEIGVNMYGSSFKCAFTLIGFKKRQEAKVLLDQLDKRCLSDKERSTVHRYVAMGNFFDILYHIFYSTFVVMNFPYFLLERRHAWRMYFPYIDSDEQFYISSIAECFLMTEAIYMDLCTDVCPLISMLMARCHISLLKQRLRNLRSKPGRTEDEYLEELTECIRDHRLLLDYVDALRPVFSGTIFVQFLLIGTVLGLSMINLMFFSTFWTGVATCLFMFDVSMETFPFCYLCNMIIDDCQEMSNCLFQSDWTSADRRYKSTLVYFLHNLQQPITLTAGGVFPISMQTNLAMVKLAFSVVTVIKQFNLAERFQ
T3 sequence (Q9VNB5 1-486): T1 sequence (Q9VNB5 1-486)
Method: as §1, §2, §3, §4

[5] = target: T1, Or83b; assay: cell-based; settings: -60 mV, n = 10
Method: For this, HEK293 cells were cultured at a density of ∼2*10^4 per 35-mm dish and transfected with 1 µg pcDNA3-DOR83b-GFP (Neuhaus et al., Nat Neurosci 8: 15-17, 2005.) using Roti-Fect transfection kit (Roth, Karlsruhe, Germany). For electrophysiological experiments we only used cells showing GFP fluorescence (when illuminated at 470 nm) as indicator of putative OR expression.
For electrophysiological studies, ion currents in HEK293 cells were measured at room temperature in the inside-out configuration. Current measurements and data acquisition were performed using an EPC9 patch-clamp amplifier controlled by PatchMaster software (both HEKA Elektronik, Lambrecht, Germany). Patch-clamp pipettes were fabricated from borosilicate capillaries. Pipettes for whole-cell recordings had resistances of up to 15 MΩ. The bath solution contained (in mM) 140 KCI, 4 NaCl, 2.2 CaCl2, 2 Mg-ATP, 0.05 Na-GTP, 5 EGTA, 10 HEPES (pH 7.3), and the pipette solution contained (in mM) 135 NaCl, 5 KCI, 1 CaCl2, 1 MgCl2, 10 HEPES, 10 glucose (pH 7.4).

[6] = test system: modified cyclic nucleotide-gated ion channels; settings: US 07166463 and US 07341836; cited from earlier work
[7] = target: T4, vertebrate CNGA2 channel (Rattus norvegicus, UniProt Q00195); settings: Dhallan et al., Nature 347 (1990); cited from earlier work
T4 sequence (Q00195 1-664): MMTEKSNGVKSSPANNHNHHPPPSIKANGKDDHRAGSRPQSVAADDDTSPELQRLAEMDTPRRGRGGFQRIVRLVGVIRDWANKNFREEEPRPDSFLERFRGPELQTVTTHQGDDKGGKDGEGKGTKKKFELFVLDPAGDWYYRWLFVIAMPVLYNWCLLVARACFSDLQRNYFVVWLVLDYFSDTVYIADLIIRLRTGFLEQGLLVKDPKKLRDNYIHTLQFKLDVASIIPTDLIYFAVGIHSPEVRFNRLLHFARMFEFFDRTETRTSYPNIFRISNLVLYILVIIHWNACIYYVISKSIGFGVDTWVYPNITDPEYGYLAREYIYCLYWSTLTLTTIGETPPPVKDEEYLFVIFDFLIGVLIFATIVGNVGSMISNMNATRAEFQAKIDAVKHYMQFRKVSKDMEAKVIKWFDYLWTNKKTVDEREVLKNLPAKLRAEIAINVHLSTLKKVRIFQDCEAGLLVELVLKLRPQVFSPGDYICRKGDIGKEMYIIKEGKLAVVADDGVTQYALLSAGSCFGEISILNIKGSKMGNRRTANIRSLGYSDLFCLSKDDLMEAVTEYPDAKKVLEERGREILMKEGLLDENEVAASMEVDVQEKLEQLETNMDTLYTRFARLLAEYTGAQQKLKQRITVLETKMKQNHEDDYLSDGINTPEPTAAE

[8] = target: Periplaneta adipokinetic hormone receptor (pAKHR) (Periplaneta); assay: cell-based or functional assay

Nc1nc2c(nc(Br)n2[C@@H]2O[C@@H]3COP(=O)(O)O[C@H]3[C@H]2O)c(=O)[nH]1 [8-bromo-cGMP]
agonist comparison for the elevation of [Ca^2+]i [1]: significantly better agonist than 8-bromo-cAMP | current elicited ([2]; Or83b-expressing HEK293 cells): elicited a current similar to that obtained upon 8-bromo-cAMP application | agonist comparison for current activation ([2]; concentration-response relations, -100 mV (Fig. 6d)): significantly better agonist than 8-bromo-cAMP | current response of cells [3]: responsive

O=Cc1ccccc1 [Bea, benzaldehyde]
effect on current recorded under control conditions [4]: reduced the current recorded under control conditions

CCCCCCOC(=O)C1(O)CC2OC1(C)n1c3ccccc3c3c4c(c5c6ccccc6n2c5c31)C(=O)NC4 (stereo not drawn) [KT5720]
effect of preincubation on ion currents elicited by 8-bromo-cAMP ([2]; 10 µM, n = 6): not significantly altered

CCCCCOC(C)=O [PA, pentyl acetate]
current response of cells [3]: responding

Nc1ncnc2c1ncn2[C@@H]1O[C@@H]2COP(=O)(O)O[C@H]2[C@H]1O [cAMP, 3'-5'-cyclic adenosine monophosphate]
Hill coefficient of mean currents of inside-out patches [5]: 0.42 | EC50 ([5]; EC50 of mean currents of inside-out patches): 1 nM and 1.1 nM | EC50 [6]: 14500 nM

Nc1nc2c(ncn2[C@@H]2O[C@@H]3COP(=O)(O)O[C@H]3[C@H]2O)c(=O)[nH]1 [cGMP, cyclic guanosine monophosphate]
EC50 [7]: 1000 nM

adipokinetic hormone I (AKH I) (peptide)
membrane current at -100 mV (whole-cell patch clamp, ramp protocol) in HEK293 cells coexpressing pAKHR and the cAMP-activated channel Or83b, after application of AKH I [8]: 294 pA

Reference: patent EP2108954A1, “A test system for detecting intracellular cyclic nucleotide level and methods and uses thereof” (Max-Planck-Gesellschaft zur Förderung der Wissenschaften …, priority 2008, dated 2009)
